Like-named read-outs stand apart in the source and are kept apart here.
How the values were obtained:
BTK = BTK (Homo sapiens, UniProt Q06187); test: Degradation of BTK protein in Namalwa cells (Western blot; DC50, Dmax); settings: for DC50: cell line not given
JeKo-1 cells = test: Antiproliferative effect, MTS cell viability assay, JeKo-1 cells; assay type: cell-based; settings: Homo sapiens; JeKo-1 mantle cell lymphoma cells; read-out: IC50 (anti-proliferation) JeKO-1 cells
How it was run: (§1)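 Tested at six concentrations (0 to 10 μM in tenfold steps), 72 h; viability by MTS, A490.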

Mino cells = test: Antiproliferative effect, MTS cell viability assay, Mino cells; assay type: cell-based; settings: Homo sapiens, MINO, Mino mantle cell lymphoma cells; read-out: IC50 (anti-proliferation) Mino cells
How it was run: as §1

[1] = read-out: DC50 (BTK degradation), concentration giving 50% reduction of BTK expression level
[2] = read-out: Dmax (BTK degradation)

Chain of BTK (Q06187 whole entry): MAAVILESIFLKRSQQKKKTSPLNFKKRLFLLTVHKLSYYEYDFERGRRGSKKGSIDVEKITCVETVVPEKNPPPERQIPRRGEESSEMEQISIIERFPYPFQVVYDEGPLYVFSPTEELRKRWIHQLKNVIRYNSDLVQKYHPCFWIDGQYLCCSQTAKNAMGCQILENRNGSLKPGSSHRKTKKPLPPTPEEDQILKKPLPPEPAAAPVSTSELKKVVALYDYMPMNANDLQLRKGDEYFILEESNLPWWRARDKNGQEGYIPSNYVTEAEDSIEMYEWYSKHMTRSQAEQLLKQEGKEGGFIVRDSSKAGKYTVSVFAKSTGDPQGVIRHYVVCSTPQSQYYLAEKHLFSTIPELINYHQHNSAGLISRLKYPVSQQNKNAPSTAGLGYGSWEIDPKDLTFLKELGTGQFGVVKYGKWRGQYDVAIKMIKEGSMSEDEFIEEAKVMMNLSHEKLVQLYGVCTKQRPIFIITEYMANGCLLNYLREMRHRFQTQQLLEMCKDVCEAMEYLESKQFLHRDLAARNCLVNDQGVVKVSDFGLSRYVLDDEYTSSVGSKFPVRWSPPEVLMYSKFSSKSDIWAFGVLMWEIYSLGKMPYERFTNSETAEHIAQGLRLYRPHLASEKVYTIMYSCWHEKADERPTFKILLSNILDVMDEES

Dmax (BTK) [%] | DC50 (BTK; BTK degradation) [nM] | degradation of BTK protein (BTK; Namalwa B lymphocyte cells, various concentrations, 24 hours, Western blot) | DC50 (BTK; [1]) [nM] | Dmax (BTK; [2]) [%] | SMILES | IC50 (JeKo-1 cells) [nM] | IC50 (Mino cells) [nM]
> 90 | < 10 | – | – | – | NC(=O)c1c(-c2ccc(Oc3ccccc3)cc2)nn2c1NCCC2C1CCN(C(=O)N2CCC(CC3CCN(c4ccc5c(c4)C(=O)N(C4CCC(=O)NC4=O)C5=O)CC3)CC2)CC1 (centres unmarked) [Compound 277, 7-(1-(4-((1-(2-(2,6-dioxopiperidin-3-yl)-1,3-dioxoisoindolin-5-yl)piperidin-4-yl)methyl)piperidine-1-carbonyl)piperidin-4-yl)-2-(4-phenoxyphenyl)-4,5,6,7-tetrahydropyrazolo[1,5-a]pyrimidine-3-carboxamide] | 1000 to 10000 | < 1000
– | – | dose-dependent degradation | > 50 | > 90 | Nc1ncnc2c1c(-c1ccc(Oc3ccccc3)cc1)nn2C1CCN(CC2CCN(CC3CN(CC4CN(c5ccc6c(c5)C(=O)N(C5CCC(=O)NC5=O)C6=O)C4)C3)C2)CC1 (centres unmarked) [Compound 427, 5-(3-((3-((3-((4-(4-amino-3-(4-phenoxyphenyl)-1H-pyrazolo(3,4-d)pyrimidin-1-yl)piperidin-1-yl)methyl)pyrrolidin-1-yl)methyl)azetidin-1-yl)methyl)azetidin-1-yl)-2-(2,6-dioxopiperidin-3-yl)isoindoline-1,3-dione] | 1000 to 10000 | 1000 to 10000
– | – | – | > 50 | > 50 | Nc1ncnc2c1c(-c1ccc(Oc3ccccc3)cc1)nn2C1CCN(CCC#Cc2ccc(N3CCC(=O)NC3=O)cc2)CC1 [Compound 540, 1-(4-(4-(4-(4-amino-3-(4-phenoxyphenyl)-1H-pyrazolo[3,4-d]pyrimidin-1-yl)piperidin-1-yl)but-1-yn-1-yl)phenyl)dihydropyrimidine-2,4(1H,3H)-dione] | > 10000 | > 10000
– | – | – | 10 to 50 | > 90 | Nc1ncnc2c1c(-c1ccc(Oc3ccccc3)cc1)nn2C1CCN(C[C@H]2CCN(CC3CCN(c4ccc5c(c4)C(=O)N(C4CCC(=O)NC4=O)C5=O)CC3)C2)CC1 (stereo partly drawn) [Compound 445a, 5-(4-(((R)-3-((4-(4-amino-3-(4-phenoxyphenyl)-1H-pyrazolo[3,4-d]pyrimidin-1-yl)piperidin-1-yl)methyl)pyrrolidin-1-yl)methyl)piperidin-1-yl)-2-(2,6-dioxopiperidin-3-yl)isoindoline-1,3-dione] | 1000 to 10000 | 1000 to 10000
– | – | – | 10 to 50 | > 90 | Nc1ncnc2c1c(-c1ccc(Oc3ccccc3)cc1)nn2C1CCN(C2CCN(CCN3CCN(c4ccc(N5CCC(=O)NC5=O)cc4)CC3)CC2)CC1 [Compound 570, 1-(4-(4-(2-(4-(4-amino-3-(4-phenoxyphenyl)-1H-pyrazolo[3,4-d]pyrimidin-1-yl)-[1,4′-bipiperidin]-1′-yl)ethyl)piperazin-1-yl)phenyl)dihydropyrimidine-2,4(1H,3H)-dione] | 1000 to 10000 | 1000 to 10000
> 90 | 10 to 50 | – | – | – | NC(=O)c1c(-c2ccc(Oc3ccccc3)cc2)nn2c1NCCC2C1CCN(CC2CCN(C(=O)N3CCC(C4CCN(c5ccc6c(c5)C(=O)N(C5CCC(=O)NC5=O)C6=O)CC4)CC3)CC2)CC1 (centres unmarked) [Compound 365, 7-(1-((1-(1′-(2-(2,6-dioxopiperidin-3-yl)-1,3-dioxoisoindolin-5-yl)-[4,4′-bipiperidine]-1-carbonyl)piperidin-4-yl)methyl)piperidin-4-yl)-2-(4-phenoxyphenyl)-4,5,6,7-tetrahydropyrazolo[1,5-a]pyrimidine-3-carboxamide] | < 1000 | < 1000

SMILES | Dmax (BTK) [%] | DC50 (BTK; BTK degradation) [nM] | degradation of BTK protein (BTK; Namalwa B lymphocyte cells, various concentrations, 24 hours, Western blot) | DC50 (BTK; [1]) [nM] | Dmax (BTK; [2]) [%] | IC50 (JeKo-1 cells) [nM] | IC50 (Mino cells) [nM]
Nc1ncnc2c1c(-c1ccc(Oc3ccccc3)cc1)nn2C1CCN(CCN2CCC(N3CCN(c4ccc5c(c4)C(=O)N(C4CCC(=O)NC4=O)C5=O)CC3)C2)CC1 (single isomer, unassigned) [Compound 459a, 5-(4-(1-(2-(4-(4-amino-3-(4-phenoxyphenyl)-1H-pyrazolo[3,4-d]pyrimidin-1-yl)piperidin-1-yl)ethyl)pyrrolidin-3-yl)piperazin-1-yl)-2-(2,6-dioxopiperidin-3-yl)isoindoline-1,3-dione] | – | – | – | 10 to 50 | > 90 | < 1000 | < 1000

From patent publication US12139492B2 (Endotarget Inc., priority 2021, dated 2024)
